Results from patent publication US10238631B2, “Sesquiterpene derivatives and their use in inflammation or cancer treatment” (Academia Sinica, priority 2014, dated 2019).
Where two headings read alike, the source gives them in different places.

Assays:
[1] = tested on: TS/A (ER+, Her2−) murine mammary cancer cells; assay: MTT cell viability assay, TS/A cells; format: cell-based; settings: Mus musculus, 24 h, read-out: IC50 on cell viability, TS/A (ER+, Her2−)
Method: (§1) Normal or cancer cells (2×10^3 to 1×10^4 cells/well) were seeded in 96-well plate for overnight and treated with different compounds for 24 h to 72 h. Cells growth were determined by MTT-based colorimetric assays according to. Viability of the test cells treated with vehicle (0.5% DMSO) only was defined as 100% viable. Survival of cells after treatment with DETDs was calculated using the following formula: viable cell number (%)=OD570 (treated cell culture)/OD570 (vehicle control)×100.
(§2) Sixty DETDs were derived from parental compound […] and tested for anti-breast cancer cell activity.

[2] = tested on: MDA-MB-231 (ER−, PR−, Her2−) human breast cancer cells; assay: MTT cell viability assay, MDA-MB-231 cells; format: cell-based; settings: Homo sapiens, MDA-MB-231, 24 h, read-out: IC50 on cell viability, MDA-MB-231 (ER−, PR−, Her2−)
Method: as §1, §2

[3] = tested on: MCF-7 (ER+, Her2−) human breast cancer cells; assay: MTT cell viability assay, MCF-7 cells; format: cell-based; settings: MCF7, 24 h, read-out: IC50 on cell viability, MCF-7 (ER+, Her2−)
Method: as §1, §2

[4] = tested on: M10 normal mammary epithelial cells; assay: MTT cell viability assay, M10 normal cells; format: cell-based, human; settings: Homo sapiens, Epithelial cell, 24 h
Method: as §1, §2

B16-F10 (NRAS mutation) = assay: MTT cell viability assay, B16-F10 melanoma; format: cell-based; settings: Mus musculus, B16-F10, 24 h, read-out: IC50 on cell viability, B16-F10 (NRAS mutation)
Method: as §1
(§3) Several genes are involved in melanoma development and pathology; specifically, mutation in V-raf murine sarcoma viral oncogene homolog B1 (B-RAF) occurs approximately 50-60% and in neuroblastoma RAS viral oncogene homolog (N-RAS) occurs about 30% of malignant melanomas. A spectrum of wild-type or mutated melanoma cell lines including B16-F10, MeWo, A375, A2058, HTB-68, and melanocyte were used to study anti-melanoma cell proliferation activity of parental phytocompound DET and newly synthesized DETDs.

[5] = tested on: MeWo (No NRAS or BRAF mutation); assay: MTT cell viability assay, MeWo melanoma; format: cell-based, human; settings: Homo sapiens, MeWo, 24 h
Method: as §1, §3

HTB-68 (NRAS mutation) = assay: MTT cell viability assay, HTB-68 melanoma; format: cell-based, human; settings: Homo sapiens, 24 h
Method: as §1, §3

A2058 (BRAF mutation) = assay: MTT cell viability assay, A2058 melanoma; format: cell-based, human; settings: Homo sapiens, A2058, 24 h
Method: as §1, §3

A375 (BRAF mutation) = assay: MTT cell viability assay, A375 melanoma; format: cell-based, human; settings: Homo sapiens, A-375, 24 h, read-out: IC50 on cell viability, A375 (BRAF mutation)
Method: as §1, §3
To investigate whether or not DETD-35 show synergism with PLX4032 against A375 melanoma cells, we performed anti-proliferation assay using MTT reagent to obtain IC50 of each compound. […] The synergistic effect was quantified by combination index (CI) analysis as stated above.

[6] = tested on: Melanocyte (Normal cells); assay: MTT cell viability assay, normal melanocytes; format: cell-based, human; settings: Homo sapiens, Melanocyte, 24 h
Method: as §1, §3

[7] = tested on: RAW264.7 (normal macrophage); assay: MTT cell viability assay, RAW264.7 macrophages; format: cell-based, mouse; settings: Mus musculus, RAW264.7, 24 h
Method: as §1
(§4) Marcophages (2×10^5 cells/well in 96-well plate) were treated with compounds for 1 h, then incubated further for 24 h with or without the presence of […] LPS in the cultural medium. Nitrite levels in cell culture medium were determined by the Griess reaction method. In parallel to the Griess assays, macrophage cell viabilities were determined using the MTT based colorimetric assay.

[8] = tested on: LPS-induced nitric oxide (NO) production in RAW 264.7 cells; assay: Nitric oxide production in LPS-stimulated macrophages (Griess); format: cell-based, mouse; settings: Mus musculus; LPS-stimulated RAW264.7, nitrite 24 h after LPS
Method: as §4
LPS from the outer membrane of Gram-negative bacteria can induce mRNA or protein levels of inducible nitric oxide synthase (iNOS), which catalyzes oxidative deamination of L-arginine to produce nitric oxide (NO). Once NO is predominantly produced, it interacts with superoxide anion and generates highly reactive oxidants resulting in cellular inflammation, DNA, protein and tissue damages, carcinogenesis, and antiapoptosis. We used in vitro LPS stimulated inflammation in RAW264.7 cell system to evaluate the effect of DET and its derivatives DETDs on NO production by determination of nitrite level (equivalent to NO level) in culture medium 24 h after LPS treatment.

Row | SMILES | IC50 [1] [µM] | IC50 [2] [µM] | IC50 [3] [µM] | IC50 [4] [µM] | IC50 (B16-F10 (NRAS mutation); 24 h) [µM] | IC50 [5] [µM] | IC50 (HTB-68 (NRAS mutation)) [µM] | IC50 (A2058 (BRAF mutation)) [µM] | IC50 (A375 (BRAF mutation); 24 h, MTT) [µM] | IC50 [6] [µM] | IC50 [7] [µM] | IC50 [8] [µM] | IC50 (B16-F10 (NRAS mutation)) [µM] | IC50 (A375 (BRAF mutation)) [µM]
1 | C=C1C(=O)OC2CC3=C[C@@H](C/C(C)=C/C(OC(=O)Cc4cccc5cccnc45)[C@H]12)OC3=O (stereo partly drawn) [DETD-52] | > 7.5 | > 15 | > 7.5 | > 7.5 | > 10 | > 10 | > 10 | > 10 | > 10 | > 10 | > 10 | > 10 |  | 
2 | C=C1C(=O)OC2CC3=C[C@@H](C/C(C)=C/C(OC(=O)C=C(C)C)[C@H]12)OC3=O (stereo partly drawn) [DETD-8] | 1.9 | 6.7 | 3.4 | > 7.5 | 6.8 | > 10 | > 10 | > 10 | > 10 | > 10 | > 10 | 2.5 |  | 
3 | C=C1C(=O)OC2CC3=C[C@@H](C/C(C)=C/C(OC(=O)/C=C/C)[C@H]12)OC3=O (stereo partly drawn) [DETD-24] | 2.3 | > 7.5 | 3.9 | > 7.5 | > 10 | > 10 | > 10 | > 10 | > 10 | > 10 | > 10 | 4.4 |  | 
4 | C=C1C(=O)OC2CC3=C[C@@H](C/C(C)=C/C(OC(=O)c4cc5ccccc5s4)[C@H]12)OC3=O (stereo partly drawn) [DETD-41] | 2.8 | 5 | 5.3 | > 7.5 | 5.5 | > 10 | > 10 | > 10 | > 10 | > 10 | > 10 | 3.5 |  | 
5 | C=C1C(=O)OC2CC3=C[C@@H](C/C(C)=C/C(OC(=O)Cc4ccccc4)[C@H]12)OC3=O (stereo partly drawn) [DETD-43] | 2.4 | 6.9 | > 7.5 | > 7.5 |  | > 10 | 8.2 | 8.7 |  | > 10 | > 10 | 3.5 | 7.4 | 3.6
6 | C=C1C(=O)OC2CC3=C[C@@H](C/C(C)=C/C(OC(=O)/C=C/c4cccc(OC(F)(F)F)c4)[C@H]12)OC3=O (stereo partly drawn) [DETD-47] | > 7.5 | > 15 | > 7.5 | > 7.5 | > 10 | > 10 | > 10 | > 10 | 8.3 | > 10 | > 10 | > 10 |  | 
7 | C=C1C(=O)OC2CC3=C[C@@H](C/C(C)=C/C(OC(=O)/C=C/CC)[C@H]12)OC3=O (stereo partly drawn) [DETD-25] | 4 | > 7.5 | 5.8 | > 7.5 | > 10 | > 10 | > 10 | > 10 | > 10 | > 10 | > 10 | 4.9 |  | 
8 | C=C1C(=O)OC2CC3=C[C@@H](C/C(C)=C/C(OC(=O)/C=C/c4ccc(C)cc4)[C@H]12)OC3=O (stereo partly drawn) [DETD-27] | 2.4 | 3.6 | 3.7 | > 7.5 | 4.8 | > 10 | > 10 | > 10 | > 10 | > 10 | > 10 | 1.9 |  | 
